{
  "source": "patent US9133484B2",
  "about": "“Transfection agent” (3-D MATRIX, LTD., priority 2008, dated 2015)",
  "key": {"[1]": {"system": "cultured human malignant glioma cells (U87MG, T98G, U251MG)", "assay": "Introduction of Cy3-labeled siRNA into cells, fluorescence microscopy", "assay_type": "cell-based", "settings": "siRNA 50 nM plus peptide surfactant 20 μg/ml, 8 hours, all three types of cells", "experimental": "The introduction of siRNA into cells by peptide surfactant was confirmed by microscopic observation of fluorescent-labeled siRNA.\n<Materials> • *Peptide surfactant • Sequence: Ac-AAAAAAK-NH2 (SEQ ID NO: 17) (Celtek) • *siRNA • siRNA/MMP-2 (Santa Cruz) • *siRNA fluorescent labeling reagent • Label IT Cy-3 Labeling Kit (Mirus) • *Cells • Three types of cultured human malignant glioma cells (U87MG, T98G, U251MG, each acquired from ATCC)\nsiRNA/MMP-2 was labeled with Cy3 using the siRNA fluorescent labeling reagent in accordance with the Mirus protocol. 5000 of the cells were seeded into a chambered slide glass in accordance with the ATCC protocol and incubated for overnight. After removing the medium, siRNA to a final concentration of 50 nM and peptide surfactant to a final concentration of 20 μg/ml were added to 1 ml of medium followed by culturing for 8 hours. In a control group, only siRNA was cultured at a final concentration of 50 nM in 1 ml of medium."}, "[2]": {"system": "cultured human malignant glioma cells (U87MG, T98G, U251MG)", "assay": "Relationship between peptide surfactant concentration and siRNA introduction efficiency (RFU)", "assay_type": "cell-based", "experimental": "The manner in which the efficiency of introduction of siRNA into cells is dependent on concentration of peptide surfactant was examined by microscopic observation of fluorescent-labeled siRNA.\n<Materials> • *Peptide surfactant • Sequence: Ac-AAAAAAK-NH2 (SEQ ID NO: 17) (Celtek) • *Peptide surfactant concentrations: • 0, 0.5, 1.0, 5.0, 10.0, 20.0, 25.0 μg/ml • *siRNA • siRNA/MMP-2 (Santa Cruz) • *siRNA fluorescent labeling reagent • Label IT Cy-3 Labeling Kit (Mirus) • *Cells • Three types of cultured human malignant glioma cells (U87MG, T98G, U251MG, acquired from ATCC)\nsiRNA/MMP-2 was labeled with Cy3 using the siRNA fluorescent labeling reagent in accordance with the Minis standard protocol. The labeled siRNA was then mixed with the peptide surfactant. siRNA to a final concentration of 50 nM and peptide surfactant to final concentrations of 0, 0.5, 1, 5, 10, 20 and 25 μg/ml were administered to 1×10^5 cells seeded in a 24-well plate containing medium at 1 ml/well, followed by culturing for 8 hours. After washing the wells with PBS, the cells were recovered and transferred to a 96-well plate where they were measured for optical absorbance."}, "[3]": {"assay": "Cytotoxicity, MTT cell proliferation assay (Cell Titer 96 Aqueous One Solution)", "assay_type": "cell-based", "settings": "human, U87MG malignant glioma cells", "experimental": "Cytotoxicity was evaluated using cultured human cells for a peptide surfactant and two types of currently widely used cationic liposome-mediated gene transfer agents.\n<Materials> • *Added Substances • 1. Peptide surfactant (sequence: Ac-AAAAAAK-NH2(SEQ ID NO: 17), Celtek) • 2. Lipofectamine 2000 (Invitrogen) • 3. siFECTOR (B-Bridge International, Inc.) • *Cells • Cultured human malignant glioma cells (U87MG, acquired from ATCC) • *MTT Assay Reagent (for cell proliferation assay) • Cell Titer 96 Aqueous One Solution Cell Proliferation Assay Kit (Promega)\nThe cells were seeded in a 96-well plate in accordance with the recommended ATCC protocol (cell density: 2×10^4/well) followed by incubating overnight. The medium was replaced with fresh medium and the substances were added (final concentrations: 0.0005, 0.001, 0.005, 0.01, 0.05, 0.1, 0.5, 1, 5, 10, 25, 50, 75, 100, 250 and 500 μg/ml). The cells were cultured for 24 hours. After culturing, Cell Titer 96 Aqueous One Solution was added (20 μl/well) followed by measuring optical absorbance at 495 nm with a plate reader 4 hours later to quantify the number of viable cells."}, "[4]": {"system": "cultured human malignant glioma cells (U87MG, T98G, U251MG)", "assay": "Time-based changes in amount of siRNA introduced into cells (RFU)", "assay_type": "cell-based", "settings": "siRNA 50 nM, peptide surfactant 20 μg/ml (FIG. 2)", "experimental": "Time-based changes in the amounts of siRNA introduced into cells by peptide surfactant were examined by microscopic observation of fluorescent-labeled siRNA.\n<Materials> • *Peptide surfactant • Sequence: Ac-AAAAAAK-NH2 (SEQ ID NO: 17) (Celtek) • *Peptide surfactant concentrations: • 0, 0.5, 1.0, 5.0, 10.0, 20.0, 25.0 μg/ml • *siRNA • siRNA/MMP-2 (Santa Cruz) • siRNA fluorescent labeling reagent • Label IT Cy-3 Labeling Kit (Mirus) • *Cells • Three types of cultured human malignant glioma cells (U87MG, T98G, U251MG, acquired from ATCC)\nsiRNA/MMP-2 was labeled with Cy3 using the siRNA fluorescent labeling reagent in accordance with the Minis standard protocol. The labeled siRNA was then mixed with the peptide surfactant. siRNA to a final concentration of 50 nM and peptide surfactant to a final concentration of 20 μg/ml were administered to 1×10^5 cells seeded in a 24-well plate containing medium at 1 ml/well, followed by incubating for 0.5, 1, 2, 4, 8, 16 and 24 hours. After washing the wells with PBS, the cells were recovered and transferred to a 96-well plate where they were measured for optical absorbance."}, "[5]": {"system": "MMP-2 mRNA", "assay": "RNA interference effect by RT-PCR (MMP-2 target, beta-actin internal standard)", "assay_type": "cell-based, human", "settings": "siRNA 50 nM/peptide surfactant 20 μg/ml, 8 hours, U87MG, T98G, U251MG (FIGS. 4 to 6)", "experimental": "siRNA introduced into cells by peptide surfactant was confirmed to have RNA interference ability by RT-PCR.\n<Materials> • *Peptide surfactant • Sequence: Ac-AAAAAAK-NH2 (SEQ ID NO: 17) (Celtek) • *Cells • Three types of cultured human malignant glioma cells (U87MG, T98G, U251MG, acquired from ATCC)\n1×10^5 cells were seeded into a 24-well plate and cultured overnight in accordance with the ATCC standard protocol. After removing the medium, the following solutions were added to the final concentrations indicated below followed by culturing for 8 hours under the same culturing conditions as previously described. • (1) Blank control (medium only) • (2) Random oligo siRNA (Dharmacon)/peptide surfactant 20 μg/ml • (3) siRNA 50 nM • (4) Peptide surfactant 20 μg/ml • (5) siRNA 50 nM/peptide surfactant 20 μg/ml\n[…] was reverse-transcribed to cDNA using the Taqman Gene Expression Cell-to-Ct Kit (Applied Biosystems). Quantitative analysis was carried out using the Applied Biosystems 7500 Real-Time PCR System using MMP-2 for the target and beta-actin for the internal standard by Gene Expression Assay (Applied Biosystems)."}},
  "data": [
    {"substance": "Ac-AAAAAAK-NH2 [peptide surfactant, Ac-AAAAAAK-NH2]", "values": [
      {"measurement": "Uptake of Cy3-labeled siRNA", "setting": "[1]", "value": "confirmed"},
      {"measurement": "RFU versus peptide surfactant concentration (introduction of siRNA into cells)", "setting": "[2]; 0-25 μg/ml peptide surfactant, siRNA 50 nM, 8 hours, all three cell types (FIG. 3)", "value": "increases in RFU in proportion to increases in concentration"},
      {"measurement": "concentration at which dose-dependent increases in RFU weakened", "setting": "[2]; Y98G cells, siRNA 50 nM, 8 hours", "value": "≥ 10", "unit": "µg/mL"},
      {"measurement": "introduction of siRNA into cells", "setting": "[2]; peptide surfactant 20 μg/ml for 8 hours (with results of Example 3)", "value": "adequately and significantly result in introduction of siRNA into cells"},
      {"measurement": "CC50 at 24 h", "setting": "[3]", "value": 286, "unit": "µg/mL"},
      {"measurement": "relative fluorescence units (RFU), siRNA incorporated into cells", "setting": "[4]; culturing for 1 to 8 hours", "value": "increased nearly proportionately"},
      {"measurement": "RFU levels", "setting": "[4]; culturing for longer than 8 hours", "value": "essentially reached a plateau"},
      {"measurement": "Expression of MMP-2 mRNA", "setting": "[5]", "value": "significantly inhibited"}
    ]}
  ]
}
